# Measurements published in the supplement of paper PMC10307832.
# Experiments:
# Experiment in all cases: relative viability (nuclei count vs DMSO), 5 days (fraction); higher = more cells survive
# Carfilzomib + OSI-027 = compound: CC(C)C[C@H](NC(=O)[C@H](CCc1ccccc1)NC(=O)CN1CCOCC1)C(=O)N[C@@H](Cc1ccccc1)C(=O)N[C@@H](CC(C)C)C(=O)[C@@]1(C)CO1 [Carfilzomib] + COc1cccc2cc(-c3nc([C@H]4CC[C@H](C(=O)O)CC4)n4ncnc(N)c34)[nH]c12 [OSI-027] (partner 0.5 µM)
# How it was run: (§1)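 Cells from lung cancer lines were seeded into 1536-well plates and, one day later, dosed by pin tool. Treatments were either a single drug or a fixed dose of an anchor drug with five library-drug doses (not always all listed) in √10 steps. After 5 days, nuclei were stained in a one-step fixation (final 0.05% Triton X-100, 1% formaldehyde, 1 ug/ml Hoechst) and counted on 4× images, and relative viability is the treated-to-vehicle nuclei ratio, as the median of duplicate plates.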
# Carfilzomib + Crizotinib = compound: CC(C)C[C@H](NC(=O)[C@H](CCc1ccccc1)NC(=O)CN1CCOCC1)C(=O)N[C@@H](Cc1ccccc1)C(=O)N[C@@H](CC(C)C)C(=O)[C@@]1(C)CO1 [Carfilzomib] + C[C@@H](Oc1cc(-c2cnn(C3CCNCC3)c2)cnc1N)c1c(Cl)ccc(F)c1Cl [Crizotinib] (partner 1 µM)
# How it was run: as §1
# Carfilzomib + Decitabine = compound: CC(C)C[C@H](NC(=O)[C@H](CCc1ccccc1)NC(=O)CN1CCOCC1)C(=O)N[C@@H](Cc1ccccc1)C(=O)N[C@@H](CC(C)C)C(=O)[C@@]1(C)CO1 [Carfilzomib] + Nc1ncn([C@H]2C[C@H](O)[C@@H](CO)O2)c(=O)n1 [Decitabine] (partner 2 µM)
# How it was run: as §1
# Olaparib + Tozasertib = compound: O=C(c1cc(Cc2n[nH]c(=O)c3ccccc23)ccc1F)N1CCN(C(=O)C2CC2)CC1 [Olaparib] + Cc1cc(Nc2cc(N3CCN(C)CC3)nc(Sc3ccc(NC(=O)C4CC4)cc3)n2)n[nH]1 [Tozasertib] (partner 0.1 µM)
# How it was run: as §1
Cell Line,relative viability (Carfilzomib + OSI-027; first compound 0.001 µM),relative viability (Carfilzomib + OSI-027; first compound 0.003162 µM),relative viability (Carfilzomib + OSI-027; first compound 0.01 µM),relative viability (Carfilzomib + OSI-027; first compound 0.03162 µM),relative viability (Carfilzomib + OSI-027; first compound 0.1 µM),relative viability (Carfilzomib + Crizotinib; first compound 0.001 µM),relative viability (Carfilzomib + Crizotinib; first compound 0.003162 µM),relative viability (Carfilzomib + Crizotinib; first compound 0.01 µM),relative viability (Carfilzomib + Crizotinib; first compound 0.03162 µM),relative viability (Carfilzomib + Crizotinib; first compound 0.1 µM),relative viability (Carfilzomib + Decitabine; first compound 0.001 µM),relative viability (Carfilzomib + Decitabine; first compound 0.003162 µM),relative viability (Carfilzomib + Decitabine; first compound 0.01 µM),relative viability (Carfilzomib + Decitabine; first compound 0.1 µM),relative viability (Olaparib + Tozasertib; first compound 0.08 µM),relative viability (Olaparib + Tozasertib; first compound 0.253 µM),relative viability (Olaparib + Tozasertib; first compound 2.53 µM),relative viability (Olaparib + Tozasertib; first compound 8 µM),relative viability (Carfilzomib + Decitabine; first compound 0.03162 µM)
EKVX,0.689,0.754,0.834,0.601,0.315,0.936,0.819,0.941,0.887,0.348,0.371,0.36,0.335,0.128,0.441,0.352,0.388,0.445,–
EMC-BAC-2,0.378,0.448,0.409,0.242,0.197,0.779,0.896,0.928,0.661,0.229,1,1.02,0.954,0.296,0.284,0.296,0.279,0.262,0.911
EPLC-272H,0.284,0.291,0.248,0.119,0.0723,0.441,1.07,0.811,0.11,0.0759,0.353,0.391,0.379,0.0719,0.193,0.234,0.312,0.172,0.174
H3255,0.581,0.536,0.65,0.584,0.237,0.962,1.04,1.07,0.761,0.186,0.645,0.704,0.684,0.185,0.704,0.602,0.82,0.496,–
HARA,0.537,0.564,0.675,0.0444,0.0712,1.05,1.06,1.12,0.0563,0.0555,0.669,0.747,0.704,0.119,0.14,0.0884,0.0969,0.0782,0.192
HCC-15,0.706,0.801,0.763,0.279,0.0802,0.765,0.85,0.844,0.545,0.185,0.606,0.725,0.637,0.127,0.479,0.341,0.406,0.29,0.424
HCC-44,0.48,0.564,0.574,0.338,0.217,0.811,0.824,0.866,0.614,0.149,0.939,0.893,0.917,0.639,1.27,0.857,0.871,1.06,0.973
HCC-78,0.332,0.318,0.387,0.359,0.227,0.323,0.383,0.351,0.345,0.144,0.622,0.766,0.672,0.302,0.399,1.61,0.41,0.486,0.554
HCC-366,0.914,1.02,1.12,0.839,0.035,0.396,0.518,0.674,0.299,0.016,0.32,0.412,0.352,0.086,0.11,0.118,0.0926,0.0619,0.447
HCC-827,0.796,0.829,0.872,0.746,0.511,1.02,0.953,0.985,0.858,0.271,0.287,0.371,0.31,0.133,0.414,0.376,0.399,0.378,0.269
HOP-62,0.892,0.899,0.575,0.317,0.083,0.952,0.966,0.845,0.099,0.0686,0.25,0.207,0.249,0.0817,0.485,0.317,0.374,0.287,0.182
LC-2-ad,0.83,1.02,0.901,0.633,0.207,0.508,0.485,0.428,0.371,0.279,0.878,0.811,0.75,0.557,0.554,0.429,0.436,0.437,0.861
LCLC-97TM1,0.459,0.512,0.533,0.298,0.246,0.354,0.339,0.352,0.0915,0.129,0.234,0.283,0.226,0.0656,0.22,0.211,0.262,0.238,0.115
LCLC-103H,0.462,0.463,0.541,0.483,0.277,1.03,1.01,1.07,0.888,0.204,0.722,0.732,0.793,0.387,0.499,0.47,0.528,0.41,0.728
LK-2,0.223,0.201,0.166,0.18,0.181,–,0.237,0.16,0.262,0.209,0.276,0.369,0.193,0.108,0.161,0.178,0.164,0.171,0.119
LOU-NH91,0.77,0.801,0.711,0.259,0.322,0.818,0.798,0.77,0.434,0.277,0.823,0.864,0.852,0.389,0.729,0.674,0.637,0.628,0.413
LU99A,0.293,0.309,0.317,0.275,0.192,0.585,0.667,0.584,0.291,0.16,0.952,1.13,0.961,0.317,0.299,0.292,0.261,0.22,0.821
LXF-289,0.818,0.9,0.749,0.163,0.0509,0.797,0.857,0.855,0.148,0.0565,0.368,0.399,0.375,0.0931,0.232,0.146,0.159,0.156,0.162
NCI-H23,0.592,0.887,0.716,0.145,0.144,0.637,0.612,0.587,0.153,0.134,0.33,0.336,0.307,0.164,0.391,0.335,0.397,0.232,0.24
NCI-H322M,0.592,0.624,0.606,0.462,0.332,0.935,0.864,0.938,0.795,0.252,0.621,0.756,0.615,0.505,0.484,0.471,0.473,0.434,0.718
NCI-H358,0.638,0.834,0.888,0.0702,0.0685,0.712,0.802,0.525,0.104,0.144,0.208,0.24,0.181,0.0784,0.101,0.119,0.106,0.116,0.0811
NCI-H441,0.649,0.588,0.295,0.153,0.16,0.7,1.15,0.362,0.1,0.127,0.23,0.258,0.211,0.14,0.602,0.561,0.639,0.541,0.122
NCI-H460,0.647,0.678,0.697,0.287,0.022,0.921,1.01,0.852,0.0558,0.0115,0.453,0.514,0.394,0.0292,0.485,0.415,0.356,0.184,0.414
NCI-H520,0.19,0.259,0.22,0.221,0.191,0.759,0.883,0.665,0.103,0.106,0.494,0.5,0.398,0.173,0.39,0.389,0.467,0.411,0.16
NCI-H596,0.657,1,0.684,0.372,0.149,0.916,1.28,1,0.77,0.334,0.904,0.999,1.03,0.308,0.962,0.707,0.813,0.617,1.16
NCI-H647,0.562,0.747,0.583,0.0357,0.0226,0.847,1.04,0.713,0.0319,0.0277,0.365,0.321,0.274,0.0498,0.253,0.258,0.407,0.255,0.049
NCI-H650,–,0.612,0.54,0.439,0.221,0.677,0.996,0.698,0.577,0.132,0.342,0.314,0.316,0.139,0.974,0.72,0.656,0.541,0.31
NCI-H661,0.698,0.705,0.722,0.675,0.394,0.861,0.971,1.01,0.985,0.867,0.583,0.585,0.568,0.394,0.346,0.355,0.34,0.343,0.598
